System: IL-1-induced proteoglycan degradation in bovine nasal cartilage
Experiment: Bovine Nasal Cartilage (BNC) assay: inhibition of IL-1-induced proteoglycan degradation (chondroitin sulfate release, 1,9-DMB)
Format: cell-based
Conditions: Bos taurus, bovine nasal cartilage explants, IL-1β (500 U); for IC50: 48 h with compound + 24 h fresh media, dose responses 10, 1, 0.1 μM
Source text: The BNC (bovine nasal cartilage) assay provides a model for evaluating chrondroprotective compounds that block cartilage degradation through inhibition of enzyme activity or by altering the gene expression of the matrix metalloproteinase stromelysin.
Bovine nasal cartilage is obtained from a local slaughter house (Milan, Mich.); cell culture reagents from Gibco (Grand Island, N.Y.); human recombinant Interleukin-1β (IL-1β) from Boehringer Mannheim (Indianapolis, Ind.); DMB from Polysciences (Warrington, Pa.); Falcon 24 well flat-bottom tissue culture plates from Becton Dickinson (Lincoln Park, N.J.); disposable 20-mL scintillation vials from Kimble Glass (Vinland, N.J.); Papain from Sigma (P-3125, St. Louis, Miss.); high purity dimethyl sulfoxide from Burdic & Jackson (081-1, Distributed by Baxter Healthcare, McGraw Park, Ill.); Sarstedt vials for radioimmune assays (Sarstedt, Newton, N.C.); Sarstedt 96-vial aluminum racks (Sarstedt, Newton, N. C.); Cetus Pro/Pette (Perkin Elmer, Norwalk, Conn.).
The assay is accomplished in two phases. The cartilage plugs are first incubated with IL-1 in the presence of compounds. The amount of proteoglycan released is then quantified by measuring chondroitin sulfate present in the media using the 1,9-Dimethylmethylene Blue Assay.
Cartilage Culture. Bovine nasal septum is dissected free of surrounding tissue and wiped with 70% alcohol. A sterile cork borer is used to remove 5-mm cartilage disks of 2 to 3 mm thickness. Explants are equilibrated for 96 hours in F-12 supplemented with 10% fetal calf serum (FCS) and antibiotics at 37° C. in a humidified atmosphere of 95% air and 5% CO2. Explants are then rinsed with 1 mL F-12 Nutrient Mixture (without phenol red) in order to remove traces of FCS. Each treatment group is done in triplicate allowing: controls (500 μL F-12 medium + 110 μL PBS with 0.1% BSA + 7 μL DMSO); IL-1β (500 μL F-12 medium without phenol red + 100 μL IL-1β (500 U) + 7 μL DMSO + 10 μL PBS with 0.1 % BSA); and dose responses (10, 1, and 0.1 μM) (F-12 medium without phenol red + 100 μL IL-1β (500 U) + 7 μL compound dissolved in DMSO + 10 μL PBS with 0.1% BSA), to be tested per each 24-well plate. The cartilage plugs are incubated in the presence of conditioned media (IL-1β + compound) for 48 hours. […]
Quantitation of Cartilage Degradation. The ability of a compound to inhibit proteoglycan released from the cartilage plugs is quantified by measuring chondroitin sulfate. […] This color change is measured using a Titertek Multiscan MCC 340 plate reader at 540 nm. […] It is necessary to dilute (1:5, 1:10) the medium before a […] is performed by adding 10 μL of collected media to 290 μL DMF (16 mg dye/1 L of 0.1M formate buffer, pH 3.5, containing 5 mL ethanol) and reading […]. […]

| SMILES | IC50 | other results |
| --- | --- | --- |
| Cc1ccc(Cl)c(Nc2ccccc2/C=C2\CCOC2=O)c1Cl [Example 1, (E)-3-[[2-[(2,6-Dichloro-3-methylphenyl)amino]phenyl]methylene]4,5-dihydro-2(3H)-furanone] | 390 nM |  |
| Cc1ccc(Cl)c(Nc2ccccc2/C=C2\CCOC2=S)c1Cl [Example 2, (E)-3-[[2-[(2,6-Dichloro-3-methylphenyl)amino]phenyl]methylene]-4,5-dihydro-2(3H) -furanthione] |  | inhibition at 10 µM (@ 10.0 μM, read-out: Percent Inhibition @ μM): > 50% |
| O=C1OCC/C1=C\c1ccccc1Nc1cccc(C(F)(F)F)c1 [Example 3, (E)-4,5-Dihydro-3-[[2-[[3-(trifluoromethyl)phenyl]-amino]phenyl]methylene]-2(3H)-furanone] | 520 nM |  |
| O=C1OCC/C1=C\c1ccccc1Nc1ccccc1 [Example 4, (E)-4,5-Dihydro-3-[[2-(phenylamino)phenyl]methylene]2(3H) -furanone] |  | inhibition at 0.1 µM (@ 0.10 μM, read-out: Percent Inhibition @ μM): 70% |

— US5358964A, “Benzylidene-lactone and their thiocarbonyl analogs as inhibitors of proteoglycan degradation” (Warner-Lambert Company, priority 1993, dated 1994)
